{"source": "patent US20250376481A1", "about": "“POLYCYCLIC CARBAMOYL PYRIDONE DERIVATIVE, PREPARATION METHOD THEREFOR AND PHARMACEUTICAL COMPOSITION THEREOF” (NANJING AIDEA PHARMACEUTICAL TECHNOLOGY CO., LTD., priority 2021, published 2025)", "key": {"HIV-1 pseudovirus": {"test_system": "HIV-1 pseudovirus", "test": "HIV-1 pseudovirus infection test (antiviral activity, luciferase)", "assay_type": "cell-based", "conditions": "Human immunodeficiency virus 1, HEK-293T, 72 h", "method": "• Virus: The HIV-1 pseudovirus used in this experiment was a replication deficient virus, which is constructed by WuXi AppTec. • HEK 293T cell line was purchased from ATCC, and Item No. is CRL-11268. Cells were cultured in DMEM medium with 10% fetal bovine serum and 1% double antibody. • Reagents\nOn the first day, HEK 293T cells were inoculated into a 96 well test plate at the density of 55000 cells per well and […] per well, and incubated overnight in a 5% CO2 and 37° C. incubator.\nOn the second day, the tested compounds (compounds provided in the example of the present invention) and the control compounds were diluted 4-fold with cell culture medium for a total of 8 concentration points, and 50 μL diluted compounds were added to each well, and each well was performed duplicate.\nSubsequently, the HIV-1 pseudovirus was diluted to 100 TCID50/50 μL with cell culture medium, and 50 μL diluted virus was added to each well.\nCell Control (cells, no compound treatment or virus infection) and virus control (cells infected with virus, no compound treatment) were set up. The final initial test concentration of the tested compounds and control compounds was 1000 nM (Table 1), and the amount of virus infection was 100 TCID50 per well. The total volume of cell culture medium was 200 μL per well, and the final concentration of DMSO in the culture medium was 0.5%.\nThe cells were cultured in a 5% CO2 and 37° C. incubator for additional 3 days.\nOn the fifth day, in the antiviral activity test plates, 100 μL cell supernatant was sucked away from each well, 100 μL 2X luciferase reporter gene assay reagent Britellite plus was added in dark. The luciferase activity in each well of the test plates was detected by Envision. The data was used for sample antiviral activity analysis.\nDose-response curve was drawn through GraphPad Prism software. The calculation equations for antiviral activity (% Inhibition) and cell viability (% cell viability) were as follow:\nThe values of EC50 and CC50 were analyzed by GraphPad Prism (version 5) software, and nonlinear fitting analysis was used for inhibitory activity and cell viability of the compounds, and the fitting method was “log (inhibitor) vs. response—Variable slope”.\n3. The HIV-1 pseudovirus experiment was applied to determinate the in vitro antiviral activity and cytotoxicity of the tested compound on HEK 293T cells, and the experimental results were shown in the table below."}, "HIV-1 integrase": {"biological_target": "HIV-1 integrase (Human immunodeficiency virus type 1 group M subtype B, UniProt P04585)", "test": "Integrase activity test (HIV-1 Integrase Assay Kit EZ-1700)", "description": "A non-radioactive assay method, an integrase assay kit, was used to measure integrase activity quantitatively.\nEach component was prepared according to the instructions of the kit; preparation of test sample, 5 mM DMSO solution was prepared for backup, working solution was prepared according to the initial final concentration determined at the time of method establishment, with a 4-fold gradient dilution and 10 concentrations.\n• (1) The working solution of sample was prepared according to the initial concentration determinated during the methodology establishment process; • (2) Reagents were prepared according to the methods provided in the kit; • (3) DS DNA coating—blocking—addition of integrase solution—addition of sample—addition of TS DNA—addition of HRP antibody-addition of TMB peroxidase substrate—TMB termination reaction-detection of light absorption value at 450 nm.\nThe software Graphpad Prism 8.0 was applied and the calculation equation of Log (inhibitor) vs. response variable slope was used to fit the IC50 curve."}, "[1]": {"test": "Oil-water partition coefficient (n-octanol / pH 7.4 phosphate buffer)", "assay_type": "physicochemical", "conditions": "n-octanol / pH 7.4 phosphate buffer, pH 7.4; read-out: Log D (pH 7.4)", "method": "• a) To a 5 mL glass bottle was added 1 mL n-octanol and 1 mL pH 7.4 phosphate buffer, respectively. • b) The compound was added to a DMSO solution to prepare a compound stock solution with a concentration of 10 mM, and then 20 μL compound stock solution was added to the mixture solution of n-octanol and phosphate buffer. • c) Shaken at room temperature for 1 hour at a rate of 300/minute. • d) Kept for 30 minutes, and after the solution was completely layered, the upper and lower layers of the solution were taken separately to a 96 well deep well plate, and LC-MS/MS was used for detection via injection. • e) The aliquots of 1-octanol and aqueous solution were diluted consecutively with DMSO to obtain the final sample for LC-MS/MS analysis. Three consecutive dilutions were carried on every 1-octanol phase with covering a concentration range of 2500 fold. Every final aqueous phase was diluted consecutively twice with covering a concentration range of 100 fold. The MS peak areas of these solutions were used to generate log (peak area) based on the log (relative concentration) calibration line.\n[formula] • Coct=sample concentration in n-octanol • Caq=sample concentration in pH 7.4 phosphate buffer"}, "in vivo": {"test": "in vivo", "set-up": "species or system Crab-eating macaques (Macaca fascicularis)", "conditions": "male, cynomolgus monkey, po", "method": "Crab-eating macaques were used as test animal, the LC-MS/MS was used to determinate the drug concentration at different times in the plasma of crab-eating macaques, who had been administered with compound 1 via gavage (PO). The pharmacokinetic behaviors of compounds of present disclosure in crab-eating macaques were studied and their pharmacokinetic characteristics were evaluated.\nCrab-eating macaques (Macaca fascicularis), common grade, male, approximately 2.5-4 years old, 2-5 kg weight, 3 in each group.\nCompound 1 and a solid substrate (hydroxypropyl methylcellulose acetate succinate) are dissolved in an organic solvent, and the solvent was removed by heating evaporation, or removed by a spray dryer to obtain compound 1 loaded on the solid substrate.\nCompound 1 loaded on the solid substrate, which was obtained according to the above steps, was slowly added to a suitable container with approximately 80% final volume of vehicle while stirring. Stirred until it is visually uniform, and if necessary, the formulation shall be subjected to ultrasonic treatment. Vehicle was added to give the desired concentration. The obtained formulation shall be consecutively stirred until a visually uniform formulation was obtained, and if necessary, the formulation shall be subjected to ultrasonic treatment. The administration concentration with 20 mg/mL API concentration was prepared, and the preparation method for above vehicle was: approximately 30% total volume of purified water was added to an suitable container, and heated up to approximately 80° C.-90° C., the required volume of Tween 80 was added slowly to the container, while stirred until visually uniform. Purified water was added to the final volume. Stirred until a visually uniform solution was obtained.\nCrab-eating macaques were fast overnight and given free access to water. […] Feeding was resumed 2 hours after administration.\nFor crab-eating macaques administered by gavage, 20 μL blood were collected from the veins in hind limb before administration and 0.25, 0.5, 1, 2, 4, 8, 24, 48, 72 and 96 hours after administration, respectively, and placed in EDTA-K2 anticoagulant blood collection tubes, and then the blood would be placed on ice until centrifuged to obtain plasma samples. The plasma samples were centrifuged at 4° C. (3500 rpm, 10 min), and after separation, the plasma samples were transferred to EP tubes and stored at −80° C. for detection.\nThe level of tested compounds in the plasma of crab eating macaques, who had been orally administrated with different concentrations of drug were determinated: 10 μL macaque blood at each time point after administration was taken, 100 μL methanol containing an internal standard (100 ng/mL) was added, vortex mixed for 1 minute, centrifuged at 4° C. (12000 rmp, 5 minutes), and 1 μL supernatant was taken from the plasma samples for LC-MS/MS analysis."}}}
{"smiles": "C[C@H]1N2C(=O)c3c(O)c(=O)c(C(=O)NCc4ccc(F)cc4F)cn3C[C@@H]2OCC12CC2", "note": "[Compound 1]", "values": [{"measurement": "EC50", "setting": "HIV-1 pseudovirus", "value": 1.08, "unit": "nM"}, {"measurement": "IC50", "setting": "HIV-1 integrase", "value": 9.19, "unit": "nM"}, {"measurement": "logD", "setting": "[1]", "value": 2.2}, {"measurement": "AUC(0-inf)", "setting": "in vivo; 30 mg/kg", "value": "23100 ± 3840", "unit": "ng·h/mL"}, {"measurement": "AUC(0-t)", "setting": "in vivo; 30 mg/kg", "value": "22900 ± 3810", "unit": "ng·h/mL"}, {"measurement": "Cmax", "setting": "in vivo; 30 mg/kg", "value": "1800 ± 534", "unit": "ng/mL"}, {"measurement": "MRT", "setting": "in vivo; 30 mg/kg", "value": "14.1 ± 2.68", "unit": "h"}, {"measurement": "Tmax", "setting": "in vivo; 30 mg/kg", "value": 4, "unit": "h"}, {"measurement": "half-life", "setting": "in vivo; 30 mg/kg", "value": "15.7 ± 5.49", "unit": "h"}, {"measurement": "AUC(0-inf)", "setting": "in vivo; 100 mg/kg", "value": 164000, "unit": "ng·h/mL"}, {"measurement": "AUC(0-t)", "setting": "in vivo; 100 mg/kg", "value": "140000 ± 44200", "unit": "ng·h/mL"}, {"measurement": "Cmax", "setting": "in vivo; 100 mg/kg", "value": "4040 ± 871", "unit": "ng/mL"}, {"measurement": "MRT", "setting": "in vivo; 100 mg/kg", "value": 26.9, "unit": "h"}, {"measurement": "Tmax", "setting": "in vivo; 100 mg/kg", "value": "18.7 ± 25.4", "unit": "h"}, {"measurement": "half-life", "setting": "in vivo; 100 mg/kg", "value": "19.8 ± 4.78", "unit": "h"}]}
